This passage reports IC50 results from patent US10183949B2, “Pyrimidinone derivative having autotaxin-inhibitory activity” (The University of Tokyo, priority 2014, dated 2019).

The target of the first experiment is T1, Human autotaxin enzyme (Homo sapiens, UniProt Q13822).
T1 construct: purchased R&D System
Description: Evaluation of autotaxin inhibitor, 18:0 Lyso PC / choline assay (Test Example 2). Format: biochemical. As to conditions: autotaxin inhibition, IC50 class; read-out: Inhibitor activity. The essentials:
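Inhibition derived from concentration-dependent curves, scaled between no-compound (0%) and no-enzyme (100%) wells. Choline generated from 18:0 Lyso PC (200 μM stock) by human enzyme over 2 h at room temperature (Tris-HCl pH 7.5, NaCl, MgCl2, Triton X-100) read as resorufin fluorescence, 531/598 nm, after choline oxidase-peroxidase coupling.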
`N#CC1(NC(=O)Cn2c(CCCC(F)(F)F)nc(N3CCC(C(F)(F)F)CC3)c(F)c2=O)CC1` [Compound I-0241]: the IC50 is no less than 1000 nM.

`N#CC1(NC(=O)Cn2c(OCCC(F)(F)F)nc(-c3ccc(Cl)cc3)cc2=O)CC1` [Compound I-0242]: the IC50 was in the range of 100 to 1000 nM.

For `CSc1nc(-c2ccc(Cl)cc2NC(C)=O)cc(=O)n1CC(=O)NC1(C#N)CC1` [Compound I-0243], the IC50 lay within 10 to 100 nM.

Turning to `CC(=O)Nc1cc(Cl)ccc1-c1cc(=O)n(CC(=O)OC(C)(C)C)cn1` [Compound I-0244], the IC50 lay within 10 to 100 nM.

Take `CC(=O)Nc1cc(Cl)ccc1-c1cc(=O)n(CC(=O)OC(C)(C)C)c(C)n1` [Compound I-0245]: the IC50 is less than 10 nM.

In the case of `CC(=O)Nc1cc(Cl)ccc1-c1cc(=O)n(CC(=O)O)cn1` [Compound I-0246], the IC50 was no less than 1000 nM.

Regarding `CC(=O)Nc1cc(Cl)ccc1-c1cc(=O)n(CC(=O)O)c(C)n1` [Compound I-0247], the IC50 was no less than 1000 nM.

Regarding `CC(=O)Nc1cc(Cl)ccc1-c1cc(=O)n(CC(=O)NC2(C#N)CC2)c(C)n1` [Compound I-0248], the IC50 is 10 to 100 nM.

Regarding `CC(=O)Nc1cc(Cl)ccc1-c1cc(=O)n(CC(=O)NC2(C#N)CC2)cn1` [Compound I-0249], the IC50 is 100 to 1000 nM.

Turning to `CSc1nc(-c2ccc(Cl)cc2NC(C)=O)cc(=O)n1CC(=O)NCC(C)(C)O` [Compound I-0250], the IC50 is 10 to 100 nM.

On to `CSc1nc(-c2ccc(Cl)cc2NC(C)=O)cc(=O)n1CC(=O)NC(C)(C)C` [Compound I-0251], for which the IC50 was 10 to 100 nM.

In the case of `CSc1nc(-c2ccc(Cl)cc2NC(C)=O)cc(=O)n1CC(=O)NC(C)(C)CO` [Compound I-0252], the IC50 is 10 to 100 nM.

For the compound `COC(=O)Cn1c(CCCC(F)(F)F)nc(-c2ccc(C(F)(F)F)nc2)cc1=O` [Compound I-0253], the IC50 was 100 to 1000 nM.

Take `COC(=O)Cn1c(CCCC(F)(F)F)nc(-c2ccc(C(F)(F)F)cc2)cc1=O` [Compound I-0254]: the IC50 was 10 to 100 nM.

On to `O=C(O)Cn1c(CCCC(F)(F)F)nc(-c2ccc(C(F)(F)F)cc2)cc1=O` [Compound I-0255], for which the IC50 is no less than 1000 nM.

With `CCc1nc(-c2ccc(Cl)cc2NC(C)=O)cc(=O)n1CC(=O)NC1(C#N)CC1` [Compound I-0256], the IC50 was in the range of 10 to 100 nM.

With `N#CC1(NC(=O)Cn2c3nc(cc2=O)-c2ccc(Cl)cc2NC(=O)/C=C/CCO3)CC1` [Compound I-0257], the IC50 lay in the range of 10 to 100 nM.

Staying with this experiment, now noted: human autotaxin enzyme, 18:0 Lyso PC substrate, choline assay, room temperature 2 hours; read-out: Inhibitor activity (IC50).
In the case of `CC(C)(C)OC(=O)Cn1c(CCCC(F)(F)F)nc(-c2ccc(Cl)cc2)cc1=O` [Compound I-0206], the IC50 was less than 10 nM.

With `N#CC1(NC(=O)Cn2c(CCC(F)(F)F)nc(-c3ccc(Cl)cc3)cc2=O)CC1` [Compound I-0207], the IC50 was no less than 1000 nM.

As to `CCCCCc1nc(OC2CCC(C#N)CC2)cc(=O)n1CC(=O)NC1(C#N)CC1` (centres unmarked) [Compound I-0208], the IC50 was no less than 1000 nM.

In the case of `N#CC1(NC(=O)Cn2c(COCC3CC3)nc(-c3ccc(Cl)cc3)cc2=O)CC1` [Compound I-0209], the IC50 was in the range of 10 to 100 nM.

Regarding `N#CC1(NC(=O)Cn2c(COCC(F)(F)F)nc(-c3ccc(Cl)cc3)cc2=O)CC1` [Compound I-0210], the IC50 is 10 to 100 nM.

For `O=C(Cn1c(COCC(F)(F)F)nc(-c2ccc(Cl)cc2)cc1=O)NCC1(CO)CC1` [Compound I-0211], the IC50 lay within 10 to 100 nM.

For the compound `O=C(Cn1c(COCC2CC2)nc(-c2ccc(Cl)cc2)cc1=O)NCC1(CO)CC1` [Compound I-0212], the IC50 was 100 to 1000 nM.

Turning to `CCCOCc1nc(-c2ccc(Cl)cc2)cc(=O)n1CC(=O)NCC(C)(C)O` [Compound I-0213], the IC50 is 100 to 1000 nM.

As for `CC(C)(O)CNC(=O)Cn1c(COCC2CC2)nc(-c2ccc(Cl)cc2)cc1=O` [Compound I-0214], the IC50 fell in the range of 100 to 1000 nM.

In the case of `CC(C)(O)CNC(=O)Cn1c(COCC(F)(F)F)nc(-c2ccc(Cl)cc2)cc1=O` [Compound I-0215], the IC50 fell in the range of 10 to 100 nM.

In the case of `CC(C)(C)OC(=O)Cn1c(CCC(F)(F)F)nc(-c2ccc(Cl)cc2)cc1=O` [Compound I-0216], the IC50 is 100 to 1000 nM.

Regarding `N#CC1(NC(=O)Cn2c(CCCC(F)(F)F)nc(N3CCC(C(F)(F)F)CC3)cc2=O)CC1` [Compound I-0217], the IC50 is 10 to 100 nM.

With `N#CC1(NC(=O)Cn2c(CCCC(F)(F)F)nc(-c3ccc(Cl)cc3)c(F)c2=O)CC1` [Compound I-0218], the IC50 lay in the range of 100 to 1000 nM.

As for `N#CC1(NC(=O)Cn2c(CCCC(F)(F)F)nc(N3CCC(Cc4ccccc4)C3)cc2=O)CC1` (centres unmarked) [Compound I-0219], the IC50 lay within 100 to 1000 nM.

For `N#CCc1cc(OC(F)(F)F)ccc1-c1cc(=O)n(CC(=O)NC2(C#N)CC2)c(CCCC(F)(F)F)n1` [Compound I-0220], the IC50 was 10 to 100 nM.

On to `CCOCCc1nc(-c2ccc(Cl)cc2)cc(=O)n1CC(=O)NC1(C#N)CC1` [Compound I-0221], for which the IC50 lay in the range of 10 to 100 nM.

For the compound `CCOCCc1nc(-c2ccc(Cl)cc2)cc(=O)n1CC(=O)NCC(C)(C)O` [Compound I-0222], the IC50 was 100 to 1000 nM.

For `CCOCCc1nc(-c2ccc(Cl)cc2)cc(=O)n1CC(=O)NCC1(CO)CC1` [Compound I-0223], the IC50 is 100 to 1000 nM.

In the case of `CNc1cc(Cl)ccc1-c1cc(=O)n(CC(=O)NC2(C#N)CC2)c(CCCC(F)(F)F)n1` [Compound I-0224], the IC50 was in the range of 100 to 1000 nM.

`N#CC1(NC(=O)Cn2c(CCCC(F)(F)F)nc(-c3ccc(C(F)(F)F)cc3)cc2=O)CC1` [Compound I-0225]: the IC50 was less than 10 nM.

In the case of `N#CC1(NC(=O)Cn2c(CCCC(F)(F)F)nc(-c3ccc(Cl)cc3O)cc2=O)CC1` [Compound I-0226], the IC50 is 100 to 1000 nM.

As to `N#Cc1ccc(-c2cc(=O)n(CC(=O)NC3(C#N)CC3)c(CCCC(F)(F)F)n2)cc1` [Compound I-0227], the IC50 is less than 10 nM.

Take `N#CC1(NC(=O)Cn2c(CCCC(F)(F)F)nc(-c3ccc(Cl)cc3F)cc2=O)CC1` [Compound I-0228]: the IC50 is less than 10 nM.

For the compound `COCCCc1nc(-c2ccc(Cl)cc2)cc(=O)n1CC(=O)NC1(C#N)CC1` [Compound I-0229], the IC50 was 100 to 1000 nM.

For the compound `COCCCc1nc(-c2ccc(Cl)cc2)cc(=O)n1CC(=O)NCC(C)(C)O` [Compound I-0230], the IC50 is 100 to 1000 nM.

As for `COCCCc1nc(-c2ccc(Cl)cc2)cc(=O)n1CC(=O)NCC1(CO)CC1` [Compound I-0231], the IC50 is 100 to 1000 nM.

Take `N#CC1(NC(=O)Cn2c(CCCC(F)(F)F)nc(C3=CCC(C(F)(F)F)CC3)cc2=O)CC1` (centres unmarked) [Compound I-0232]: the IC50 is less than 10 nM.

With `N#CC1(NC(=O)Cn2c(CCCC(F)(F)F)nc(-c3ccc(C(F)(F)F)nc3)cc2=O)CC1` [Compound I-0233], the IC50 fell in the range of 10 to 100 nM.

As to `N#CC1(NC(=O)Cn2c(CCCC(F)(F)F)nc(-c3c(F)cc(Cl)cc3F)cc2=O)CC1` [Compound I-0234], the IC50 lay within 10 to 100 nM.

As to `N#Cc1ccc(-c2cc(=O)n(CC(=O)NC3(C#N)CC3)c(CCCC(F)(F)F)n2)c(F)c1` [Compound I-0235], the IC50 was less than 10 nM.

For the compound `CC1(C)CN(c2cc(=O)n(CC(=O)NC3(C#N)CC3)c(CCCC(F)(F)F)n2)C1` [Compound I-0236], the IC50 is no less than 1000 nM.

In the case of `N#CC1(NC(=O)Cn2c(CCCC(F)(F)F)nc(N3CCC(F)(F)CC3)cc2=O)CC1` [Compound I-0237], the IC50 was 100 to 1000 nM.

As for `COC1CCN(c2cc(=O)n(CC(=O)NC3(C#N)CC3)c(CCCC(F)(F)F)n2)CC1` [Compound I-0238], the IC50 lay in the range of 100 to 1000 nM.

For `CC(C)(C)N1CCN(c2cc(=O)n(CC(=O)NC3(C#N)CC3)c(CCCC(F)(F)F)n2)CC1` [Compound I-0239], the IC50 is no less than 1000 nM.

On to `CC(C)CC1CCN(c2cc(=O)n(CC(=O)NC3(C#N)CC3)c(CCCC(F)(F)F)n2)C1` (centres unmarked) [Compound I-0240], for which the IC50 is 100 to 1000 nM.

As to `Cc1nc(-c2ccc(C#N)cc2NC(=O)C2CC2)cc(=O)n1CC(=O)O` [Compound I-0258], the IC50 is no less than 1000 nM.

As for `Cc1nc(-c2ccc(Cl)cc2NC(=O)C2CC2)cc(=O)n1CC(=O)O` [Compound I-0259], the IC50 was no less than 1000 nM.

On to `Cc1nc(-c2ccc(C#N)cc2NC(=O)C(C)(C)C)cc(=O)n1CC(=O)O` [Compound I-0260], for which the IC50 is no less than 1000 nM.

Consider `Cc1nc(C2=CCC(C(F)(F)F)CC2)cc(=O)n1CC(=O)NC1(C#N)CC1` (centres unmarked) [Compound I-0261], for which the IC50 was in the range of 100 to 1000 nM.

For the compound `Cc1nc(C2=CCC(C(F)(F)F)CC2)cc(=O)n1Cc1cccc(C(=O)O)c1` (centres unmarked) [Compound I-0262], the IC50 was 100 to 1000 nM.

As to `COC(=O)Nc1cc(C#N)ccc1-c1cc(=O)n(CC(=O)OC(C)(C)C)c(C)n1` [Compound I-0263], the IC50 was less than 10 nM.

Turning to `O=C(O)Cn1c(CCCC(F)(F)F)nc(-c2ccc(Cl)cc2CO)cc1=O` [Compound I-0264], the IC50 was no less than 1000 nM.

For the compound `COC(=O)Nc1cc(Cl)ccc1-c1cc(=O)n(CC(=O)NC(C)(C)C)c(C)n1` [Compound I-0265], the IC50 was 10 to 100 nM.

As for `COC(=O)Nc1cc(Cl)ccc1-c1cc(=O)n(CC(=O)OC(C)(C)C)c(C)n1` [Compound I-0266], the IC50 was less than 10 nM.

As to `CC(=O)Nc1cc(Cl)ccc1-c1cc(=O)n(Cc2cccc(C(=O)O)c2)c(C)n1` [Compound I-0267], the IC50 was less than 10 nM.

As for `Cc1nc(C2=CCC(C(F)(F)F)CC2)cc(=O)n1CC(=O)NCC1(CO)COC1` (centres unmarked) [Compound I-0268], the IC50 is no less than 1000 nM.

With `COC(=O)Nc1cc(Cl)ccc1-c1cc(=O)n(CC(=O)N(C)C(C)(C)C)c(C)n1` [Compound I-0269], the IC50 lay in the range of 10 to 100 nM.

Regarding `Cc1nc(-c2ccc(F)cc2NC(=O)C2CC2)cc(=O)n1Cc1cccc(C(=O)O)c1` [Compound I-0270], the IC50 is 10 to 100 nM.

Regarding `Cc1nc(-c2ccc(C#N)cc2NC(=O)C2CC2)cc(=O)n1Cc1cccc(C(=O)O)c1` [Compound I-0271], the IC50 was less than 10 nM.

Turning to `COC(=O)Nc1cc(Cl)ccc1-c1cc(=O)n(CC(=O)N2CCCC2(C)C)c(C)n1` [Compound I-0272], the IC50 fell in the range of 10 to 100 nM.

For the compound `Cc1nc(-c2ccc(Cl)cc2NC(=O)C(C)(C)C)cc(=O)n1CC(=O)NC(C)(C)C` [Compound I-0273], the IC50 was 10 to 100 nM.
